Laboratory results taken from ChEMBL document CHEMBL1671617, “Correlation of antimicrobial resistance with beta-lactamases, the OmpA-like porin, and efflux pumps in clinical isolates of Acinetobacter baumannii endemic to New York City” (2008).

Columns and labels:
Format in all cases: functional
Acinetobacter baumannii [1] = assay: Antimicrobial activity against ISAba1 linked with the blaOXA-51-type beta-lactamase harboring Acinetobacter baumannii alpha clonal group isolate 1 expressing ampC, ompA, adeB, adeM by Etest method
Acinetobacter baumannii [2] = assay: Antimicrobial activity against Acinetobacter baumannii alpha clonal group isolate 2 expressing ampC, ompA, adeB, adeM, aacC1, aadA1 by Etest method
Acinetobacter baumannii [3] = assay: Antimicrobial activity against Acinetobacter baumannii alpha clonal group isolate 3 expressing ampC, ompA, adeB, adeM, aacC1, aadA1 by Etest method
Acinetobacter baumannii [4] = assay: Antimicrobial activity against Acinetobacter baumannii alpha clonal group isolate 4 expressing ampC, ompA, adeB, adeM, aacC1, aadA1 by Etest method
Acinetobacter baumannii [5] = assay: Antimicrobial activity against Acinetobacter baumannii alpha clonal group isolate 5 expressing ampC, ompA, adeB, adeM, aacC1, aadA1 by Etest method
Acinetobacter baumannii [6] = assay: Antimicrobial activity against ISAba1 linked with the blaOXA-51-type beta-lactamase harboring Acinetobacter baumannii alpha clonal group isolate 6 expressing ampC, ompA, adeB, adeM, aacC1, aadA1 by Etest method
Acinetobacter baumannii [7] = assay: Antimicrobial activity against ISAba1 linked with the blaOXA-51-type beta-lactamase harboring Acinetobacter baumannii alpha clonal group isolate 7 expressing ampC, ompA, adeB, adeM, blaSHV-5 by Etest method
Acinetobacter baumannii [8] = assay: Antimicrobial activity against ISAba1 linked with the blaOXA-51-type beta-lactamase harboring Acinetobacter baumannii alpha clonal group isolate 8 expressing ampC, ompA, adeB, adeM, aacC1, aadA1 by Etest method
Acinetobacter baumannii [9] = assay: Antimicrobial activity against ISAba1 linked with the blaOXA-51-type beta-lactamase harboring Acinetobacter baumannii beta clonal group isolate 9 expressing ampC, ompA, adeB, adeM by Etest method
Acinetobacter baumannii [10] = assay: Antimicrobial activity against ISAba1 linked with the blaOXA-51-type beta-lactamase harboring Acinetobacter baumannii beta clonal group isolate 10 expressing ompA, adeB, adeM, aacA4, blaSHV-5 by Etest method
Acinetobacter baumannii [11] = assay: Antimicrobial activity against ISAba1 linked with the blaOXA-51-type beta-lactamase harboring Acinetobacter baumannii beta clonal group isolate 11 expressing ompA, adeB, adeM, blaSHV-5 by Etest method
Acinetobacter baumannii [12] = assay: Antimicrobial activity against ISAba1 linked with the blaOXA-51-type beta-lactamase harboring Acinetobacter baumannii beta clonal group isolate 12 expressing ompA, adeB, adeM, aacA4, aacC2, blaSHV-5 by Etest method
Acinetobacter baumannii [13] = assay: Antimicrobial activity against ISAba1 linked with the blaOXA-51-type beta-lactamase harboring Acinetobacter baumannii beta clonal group isolate 13 expressing ompA, adeB, adeM, aacA4, blaSHV-5 by Etest method
Acinetobacter baumannii [14] = assay: Antimicrobial activity against ISAba1 linked with the blaOXA-51-type beta-lactamase harboring Acinetobacter baumannii beta clonal group isolate 14 expressing ompA, adeB, adeM, aacA4, blaSHV-5 by Etest method
Acinetobacter baumannii [15] = assay: Antimicrobial activity against ISAba1 linked with the blaOXA-51-type beta-lactamase harboring Acinetobacter baumannii beta clonal group isolate 15 expressing ompA, adeB, adeM, aacA4, blaSHV-5 by Etest method
Acinetobacter baumannii [16] = assay: Antimicrobial activity against ISAba1 linked with the blaOXA-51-type beta-lactamase harboring Acinetobacter baumannii beta clonal group isolate 16 expressing ompA, adeB, adeM, aacA4, blaSHV-5 by Etest method
Acinetobacter baumannii [17] = assay: Antimicrobial activity against ISAba1 linked with the blaOXA-51-type beta-lactamase harboring Acinetobacter baumannii beta clonal group isolate 17 expressing ompA, adeB, adeM, aacA4, blaSHV-5 by Etest method
Acinetobacter baumannii [18] = assay: Antimicrobial activity against ISAba1 linked with the blaOXA-51-type beta-lactamase harboring Acinetobacter baumannii beta clonal group isolate 18 expressing ompA, adeB, adeM, aacA4, blaSHV-5 by Etest method
Acinetobacter baumannii [19] = assay: Antimicrobial activity against ISAba1 linked with the blaOXA-51-type beta-lactamase harboring Acinetobacter baumannii zeta clonal group isolate 19 expressing ampC, ompA, adeB, adeM, aacC2 by Etest method
Acinetobacter baumannii [20] = assay: Antimicrobial activity against ISAba1 linked with the blaOXA-51-type beta-lactamase harboring Acinetobacter baumannii zeta clonal group isolate 20 expressing ampC, ompA, adeB, adeM, aacC2 by Etest method
Acinetobacter baumannii [21] = assay: Antimicrobial activity against ISAba1 linked with the blaOXA-51-type beta-lactamase harboring Acinetobacter baumannii zeta clonal group isolate 21 expressing ampC, ompA, adeB, adeM, aacC2, blaSHV-5 by Etest method
Acinetobacter baumannii [22] = assay: Antimicrobial activity against ISAba1 linked with the blaOXA-51-type beta-lactamase harboring Acinetobacter baumannii zeta clonal group isolate 22 expressing ampC, ompA, adeB, adeM, aadA1, aacA4, aacC2, blaSHV-5 by Etest method
Acinetobacter baumannii [23] = assay: Antimicrobial activity against ISAba1 linked with the blaOXA-51-type beta-lactamase harboring Acinetobacter baumannii zeta clonal group isolate 23 expressing ampC, ompA, adeB, adeM, aadA1, aacA4, aacC2, aphA6 by Etest method
Acinetobacter baumannii [24] = assay: Antimicrobial activity against ISAba1 linked with the blaOXA-51-type beta-lactamase harboring Acinetobacter baumannii zeta clonal group isolate 24 expressing ampC, ompA, adeB, adeM, aadA1, aacA4, aacC2, blaSHV-5 by Etest method
Acinetobacter baumannii [25] = assay: Antimicrobial activity against ISAba1 linked with the blaOXA-51-type beta-lactamase harboring Acinetobacter baumannii zeta clonal group isolate 25 expressing ampC, ompA, adeB, adeM, aadA1, aacA4, aacC2, blaSHV-5 by Etest method
Acinetobacter baumannii [26] = assay: Antimicrobial activity against ISAba1 linked with the blaOXA-51-type beta-lactamase harboring Acinetobacter baumannii zeta clonal group isolate 26 expressing ampC, ompA, adeB, adeM, aadA1, aacA4, aacC2, blaSHV-5 by Etest method
Acinetobacter baumannii [27] = assay: Antimicrobial activity against Acinetobacter baumannii lambda clonal group isolate 27 expressing ampC, ompA, adeB, adeM, aadB, aadA1 by Etest method
Acinetobacter baumannii [28] = assay: Antimicrobial activity against ISAba1 linked with the blaOXA-51-type beta-lactamase harboring Acinetobacter baumannii lambda clonal group isolate 28 expressing ampC, ompA, adeM, aadB, aadA1 by Etest method
Acinetobacter baumannii [29] = assay: Antimicrobial activity against ISAba1 linked with the blaOXA-51-type beta-lactamase harboring Acinetobacter baumannii lambda clonal group isolate 29 expressing ampC, ompA, adeM, aadB, aadA1 by Etest method
Acinetobacter baumannii [30] = assay: Antimicrobial activity against ISAba1 linked with the blaOXA-51-type beta-lactamase harboring Acinetobacter baumannii lambda clonal group isolate 30 expressing ampC, ompA, adeB, adeM, aadB, aadA1 by Etest method
Acinetobacter baumannii [31] = assay: Antimicrobial activity against Acinetobacter baumannii nu clonal group isolate 31 expressing ampC, ompA, adeB, adeM, aadB, aadA2 by Etest method
Acinetobacter baumannii [32] = assay: Antimicrobial activity against Acinetobacter baumannii nu clonal group isolate 32 expressing ampC, ompA, adeB, adeM, aadB, aadA2 by Etest method
Acinetobacter baumannii [33] = assay: Antimicrobial activity against Acinetobacter baumannii nu clonal group isolate 33 expressing ampC, ompA, adeB, adeM by Etest method
Acinetobacter baumannii [34] = assay: Antimicrobial activity against Acinetobacter baumannii nu clonal group isolate 34 expressing ampC, ompA, adeB, adeM by Etest method
Acinetobacter baumannii [35] = assay: Antimicrobial activity against Acinetobacter baumannii eta clonal group isolate 35 expressing ampC, ompA, adeB, adeM by Etest method
Acinetobacter baumannii [36] = assay: Antimicrobial activity against Acinetobacter baumannii eta clonal group isolate 36 expressing ampC, ompA, adeB, adeM by Etest method
Acinetobacter baumannii [37] = assay: Antimicrobial activity against Acinetobacter baumannii unique clonal group isolate 37 expressing ampC, ompA, adeB, adeM by Etest method
Acinetobacter baumannii [38] = assay: Antimicrobial activity against Acinetobacter baumannii unique clonal group isolate 38 expressing ampC, ompA, adeB, adeM by Etest method
Acinetobacter baumannii [39] = assay: Antimicrobial activity against Acinetobacter baumannii unique clonal group isolate 39 expressing ampC, ompA, adeM by Etest method
Acinetobacter baumannii [40] = assay: Antimicrobial activity against ISAba1 linked with the blaOXA-51-type beta-lactamase harboring Acinetobacter baumannii unique clonal group isolate 40 expressing ampC, ompA, adeB, adeM, aadA1, aacA4, aacC2, blaSHV-5 by Etest method

GENTAMICIN
MIC (Acinetobacter baumannii [1]): 1 µg/mL | MIC (Acinetobacter baumannii [2]): 12 µg/mL | MIC (Acinetobacter baumannii [3]): 12 µg/mL | MIC (Acinetobacter baumannii [4]): 12 µg/mL | MIC (Acinetobacter baumannii [5]): 12 µg/mL | MIC (Acinetobacter baumannii [6]): 8 µg/mL | MIC (Acinetobacter baumannii [7]): 2 µg/mL | MIC (Acinetobacter baumannii [8]): 192 µg/mL | MIC (Acinetobacter baumannii [9]): 6 µg/mL | MIC (Acinetobacter baumannii [10]): 4 µg/mL | MIC (Acinetobacter baumannii [11]): 2 µg/mL | MIC (Acinetobacter baumannii [12]): > 256 µg/mL | MIC (Acinetobacter baumannii [13]): 8 µg/mL | MIC (Acinetobacter baumannii [14]): 8 µg/mL | MIC (Acinetobacter baumannii [15]): 8 µg/mL | MIC (Acinetobacter baumannii [16]): 8 µg/mL | MIC (Acinetobacter baumannii [17]): 8 µg/mL | MIC (Acinetobacter baumannii [18]): 64 µg/mL | MIC (Acinetobacter baumannii [19]): > 256 µg/mL | MIC (Acinetobacter baumannii [20]): > 256 µg/mL | MIC (Acinetobacter baumannii [21]): > 256 µg/mL | MIC (Acinetobacter baumannii [22]): > 256 µg/mL | MIC (Acinetobacter baumannii [23]): > 256 µg/mL | MIC (Acinetobacter baumannii [24]): > 256 µg/mL | MIC (Acinetobacter baumannii [25]): > 256 µg/mL | MIC (Acinetobacter baumannii [26]): > 256 µg/mL | MIC (Acinetobacter baumannii [27]): 1.5 µg/mL | MIC (Acinetobacter baumannii [28]): 16 µg/mL | MIC (Acinetobacter baumannii [29]): 16 µg/mL | MIC (Acinetobacter baumannii [30]): > 256 µg/mL | MIC (Acinetobacter baumannii [31]): > 256 µg/mL | MIC (Acinetobacter baumannii [32]): > 256 µg/mL | MIC (Acinetobacter baumannii [33]): 2 µg/mL | MIC (Acinetobacter baumannii [34]): 2 µg/mL | MIC (Acinetobacter baumannii [35]): 3 µg/mL | MIC (Acinetobacter baumannii [36]): 3 µg/mL | MIC (Acinetobacter baumannii [37]): 6 µg/mL | MIC (Acinetobacter baumannii [38]): 0.25 µg/mL | MIC (Acinetobacter baumannii [39]): 0.38 µg/mL | MIC (Acinetobacter baumannii [40]): > 256 µg/mL
